Test results taken from patent publication US12077503B2, “Substituted cyclic amides and their use as herbicides” (FMC CORPORATION, priority 2015, dated 2024).
Where two headings read alike, the source gives them in different places.

Columns and labels:
Assay type in all cases: in vivo
[1] = system: pigweed (Amaranthus retroflexus); test: Test A preemergence; details: Amaranthus retroflexus, pre-emergence, 240 h, preemergence, 0 to 100 scale where 0 is no effect and 100 is complete control, read-out: Pigweed plant response rating; for pest or weed control at 125 g/ha: 125 g ai/ha, visual injury rating, approximately 10 d; for pest or weed control at 500 g/ha: 500 g ai/ha
[2] = system: ryegrass, Italian (Italian ryegrass, Lolium multiflorum); test: Test A preemergence; details: Lolium multiflorum, pre-emergence, 240 h, preemergence, 0 to 100 scale where 0 is no effect and 100 is complete control, read-out: Ryegrass, Italian plant response rating; for pest or weed control at 125 g/ha: 125 g ai/ha, visual injury rating, approximately 10 d; for pest or weed control at 500 g/ha: 500 g ai/ha
How it was run: (§1)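 Greenhouse, ~10 d after spray; visual injury vs untreated controls, 0 = no effect, 100 = complete control. Preemergence: directed soil spray over planted seeds. Postemergence: plants 2–10 cm, 1–2 leaf stage. Loam/sand blend. Compound in non-phytotoxic solvent with surfactant.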

[3] = system: giant foxtail (Setaria faberii); test: Test A preemergence; details: Setaria faberi, pre-emergence, 240 h, preemergence, 0 to 100 scale where 0 is no effect and 100 is complete control, read-out: Foxtail, Giant plant response rating; for pest or weed control at 125 g/ha: 125 g ai/ha, visual injury rating, approximately 10 d; for pest or weed control at 500 g/ha: 500 g ai/ha
How it was run: as §1

[4] = system: Kochia (Kochia scoparia); test: Test A preemergence; details: Bassia scoparia, pre-emergence, 240 h, preemergence, 0 to 100 scale where 0 is no effect and 100 is complete control, read-out: Kochia plant response rating; for pest or weed control at 125 g/ha: 125 g ai/ha, visual injury rating, approximately 10 d; for pest or weed control at 500 g/ha: 500 g ai/ha
How it was run: as §1

[5] = system: ragweed (common ragweed, Ambrosia elatior); test: Test A preemergence; details: Ambrosia artemisiifolia, pre-emergence, 240 h, preemergence, 0 to 100 scale where 0 is no effect and 100 is complete control, read-out: Ragweed plant response rating; for pest or weed control at 125 g/ha: 125 g ai/ha, visual injury rating, approximately 10 d; for pest or weed control at 500 g/ha: 500 g ai/ha
How it was run: as §1

[6] = system: pigweed (Amaranthus retroflexus); test: Test A postemergence; details: Amaranthus retroflexus, post-emergence, 240 h; for pest or weed control at 125 g/ha: 125 g ai/ha, visual injury vs untreated controls after approx. 10 d, 0 = no effect, 100 = complete control, read-out: Pigweed plant response rating (0 to 100 scale); for pest or weed control at 500 g/ha: 500 g ai/ha
How it was run: as §1

[7] = system: corn (Zea mays); test: Test A postemergence; details: Zea mays, post-emergence, 240 h; for plant injury at 125 g/ha: 125 g ai/ha, visual injury vs untreated controls after approx. 10 d, 0 = no effect, 100 = complete control, read-out: Corn plant response rating (0 to 100 scale)
How it was run: as §1

[8] = system: wheat (Triticum aestivum); test: Test A postemergence; details: Triticum aestivum, post-emergence, 240 h; for plant injury at 125 g/ha: 125 g ai/ha, visual injury vs untreated controls after approx. 10 d, 0 = no effect, 100 = complete control, read-out: Wheat plant response rating (0 to 100 scale); for plant injury at 500 g/ha: 500 g ai/ha
How it was run: as §1

[9] = system: barnyardgrass (Echinochloa crus-galli); test: Test A postemergence; details: Echinochloa crus-galli, post-emergence, 240 h; for pest or weed control at 125 g/ha: 125 g ai/ha, visual injury vs untreated controls after approx. 10 d, 0 = no effect, 100 = complete control, read-out: Barnyardgrass plant response rating (0 to 100 scale); for pest or weed control at 500 g/ha: 500 g ai/ha
How it was run: as §1

[10] = system: ryegrass, Italian (Italian ryegrass, Lolium multiflorum); test: Test A postemergence; details: Lolium multiflorum, post-emergence, 240 h; for pest or weed control at 125 g/ha: 125 g ai/ha, visual injury vs untreated controls after approx. 10 d, 0 = no effect, 100 = complete control, read-out: Ryegrass, Italian plant response rating (0 to 100 scale); for pest or weed control at 500 g/ha: 500 g ai/ha
How it was run: as §1

[11] = system: blackgrass (Alopecurus myosuroides); test: Test A postemergence; details: Alopecurus myosuroides, post-emergence, 240 h; for pest or weed control at 125 g/ha: 125 g ai/ha, visual injury vs untreated controls after approx. 10 d, 0 = no effect, 100 = complete control, read-out: Blackgrass plant response rating (0 to 100 scale); for pest or weed control at 500 g/ha: 500 g ai/ha
How it was run: as §1

[12] = system: giant foxtail (Setaria faberii); test: Test A postemergence; details: Setaria faberi, post-emergence, 240 h; for pest or weed control at 125 g/ha: 125 g ai/ha, visual injury vs untreated controls after approx. 10 d, 0 = no effect, 100 = complete control, read-out: Foxtail, Giant plant response rating (0 to 100 scale); for pest or weed control at 500 g/ha: 500 g ai/ha
How it was run: as §1

[13] = system: Kochia (Kochia scoparia); test: Test A postemergence; details: Bassia scoparia, post-emergence, 240 h; for pest or weed control at 125 g/ha: 125 g ai/ha, visual injury vs untreated controls after approx. 10 d, 0 = no effect, 100 = complete control, read-out: Kochia plant response rating (0 to 100 scale); for pest or weed control at 500 g/ha: 500 g ai/ha
How it was run: as §1

[14] = system: ragweed (common ragweed, Ambrosia elatior); test: Test A postemergence; details: Ambrosia artemisiifolia, post-emergence, 240 h; for pest or weed control at 125 g/ha: 125 g ai/ha, visual injury vs untreated controls after approx. 10 d, 0 = no effect, 100 = complete control, read-out: Ragweed plant response rating (0 to 100 scale); for pest or weed control at 500 g/ha: 500 g ai/ha
How it was run: as §1

[15] = system: Galium (catchweed bedstraw, Galium aparine); test: Test A postemergence; details: Galium, post-emergence, 240 h; for pest or weed control at 125 g/ha: 125 g ai/ha, visual injury vs untreated controls after approx. 10 d, 0 = no effect, 100 = complete control, read-out: Galium plant response rating (0 to 100 scale); for pest or weed control at 500 g/ha: 500 g ai/ha
How it was run: as §1

Row | Compound | pest or weed control at 125 g/ha [1] | pest or weed control at 500 g/ha [1] | pest or weed control at 125 g/ha [2] | pest or weed control at 500 g/ha [2] | pest or weed control at 125 g/ha [3] | pest or weed control at 500 g/ha [3] | pest or weed control at 125 g/ha [4] | pest or weed control at 500 g/ha [4] | pest or weed control at 125 g/ha [5] | pest or weed control at 500 g/ha [5] | pest or weed control at 125 g/ha ([6]; postemergence) | plant injury at 125 g/ha ([7]; postemergence) | plant injury at 125 g/ha ([8]; postemergence) | pest or weed control at 125 g/ha ([9]; postemergence) | pest or weed control at 125 g/ha ([10]; postemergence) | pest or weed control at 125 g/ha ([11]; postemergence) | pest or weed control at 125 g/ha ([12]; postemergence) | pest or weed control at 125 g/ha ([13]; postemergence) | pest or weed control at 125 g/ha ([14]; postemergence) | pest or weed control at 125 g/ha ([15]; postemergence) | also measured
1 | Cc1c(F)cccc1NC(=O)[C@H]1C(=O)N(C)C[C@@H]1c1ccc(OC(F)F)cc1 [Compound 1213] | 50% | 80% | 20% | 70% | 100% | 100% | 70% | 80% | 50% | 70% | 0% | 50% | 40% | 100% | 0% | 20% | 90% | 50% | 0% | 50% | pest or weed control at 500 g/ha ([6]; postemergence, 0 to 100 scale, 0 is no effect, 100 is complete control, read-out: Pigweed plant response rating): 0%; plant injury at 500 g/ha ([7]; 500 g ai/ha, postemergence, 0 to 100 scale, 0 is no effect, 100 is complete control, read-out: Corn plant response rating): 80%; plant injury at 500 g/ha ([8]; postemergence, 0 to 100 scale, 0 is no effect, 100 is complete control, read-out: Wheat plant response rating): 50%; pest or weed control at 500 g/ha ([9]; postemergence, 0 to 100 scale, 0 is no effect, 100 is complete control, read-out: Barnyardgrass plant response rating): 100%; pest or weed control at 500 g/ha ([10]; postemergence, 0 to 100 scale, 0 is no effect, 100 is complete control, read-out: Ryegrass, Italian plant response rating): 50%; pest or weed control at 500 g/ha ([11]; postemergence, 0 to 100 scale, 0 is no effect, 100 is complete control, read-out: Blackgrass plant response rating): 40%; pest or weed control at 500 g/ha ([12]; postemergence, 0 to 100 scale, 0 is no effect, 100 is complete control, read-out: Foxtail, Giant plant response rating): 90%; pest or weed control at 500 g/ha ([13]; postemergence, 0 to 100 scale, 0 is no effect, 100 is complete control, read-out: Kochia plant response rating): 60%; pest or weed control at 500 g/ha ([14]; postemergence, 0 to 100 scale, 0 is no effect, 100 is complete control, read-out: Ragweed plant response rating): 0%; pest or weed control at 500 g/ha ([15]; postemergence, 0 to 100 scale, 0 is no effect, 100 is complete control, read-out: Galium plant response rating): 60%
2 | Cc1c(F)cccc1NC(=O)[C@H]1C(=O)N(C)C[C@@H]1c1ccc2c(c1)OC(F)(F)O2 [Compound 1252] | 70% | 90% | 80% | 90% | 90% | 100% | 80% | 80% | 60% | 70% | 0% | 80% | 70% | 80% | 70% | 50% | 80% | 20% | 0% | 50% | pest or weed control at 500 g/ha ([6]; Postemergence, visual injury, 0 to 100 scale (0 no effect, 100 complete control), approx. 10 d, read-out: Plant response rating, Pigweed): 50%; Corn plant response rating (crop injury, 0 = no effect, 100 = complete kill) at 500 g/ha ([7]; Postemergence, 500 g ai/ha, visual injury, 0 to 100 scale (0 no effect, 100 complete control), approx. 10 d): 90%; plant injury at 500 g/ha ([8]; Postemergence, visual injury, 0 to 100 scale (0 no effect, 100 complete control), approx. 10 d, read-out: Plant response rating, Wheat): 70%; pest or weed control at 500 g/ha ([9]; Postemergence, visual injury, 0 to 100 scale (0 no effect, 100 complete control), approx. 10 d, read-out: Plant response rating, Barnyardgrass): 90%; pest or weed control at 500 g/ha ([10]; Postemergence, visual injury, 0 to 100 scale (0 no effect, 100 complete control), approx. 10 d, read-out: Plant response rating, Ryegrass, Italian): 70%; pest or weed control at 500 g/ha ([11]; Postemergence, visual injury, 0 to 100 scale (0 no effect, 100 complete control), approx. 10 d, read-out: Plant response rating, Blackgrass): 50%; pest or weed control at 500 g/ha ([12]; Postemergence, visual injury, 0 to 100 scale (0 no effect, 100 complete control), approx. 10 d, read-out: Plant response rating, Foxtail, Giant): 80%; pest or weed control at 500 g/ha ([13]; Postemergence, visual injury, 0 to 100 scale (0 no effect, 100 complete control), approx. 10 d, read-out: Plant response rating, Kochia): 60%; pest or weed control at 500 g/ha ([14]; Postemergence, visual injury, 0 to 100 scale (0 no effect, 100 complete control), approx. 10 d, read-out: Plant response rating, Ragweed): 50%; pest or weed control at 500 g/ha ([15]; Postemergence, visual injury, 0 to 100 scale (0 no effect, 100 complete control), approx. 10 d, read-out: Plant response rating, Galium): 60%
